From ChEMBL document CHEMBL3593209, “5-Aryl-1H-pyrazole-3-carboxylic acids as selective inhibitors of human carbonic anhydrases IX and XII” (Bioorg Med Chem, 2015)

What was measured:
Carbonic anhydrase 1 = Carbonic anhydrase 1 (Homo sapiens, UniProt P00915); assay: Inhibition of human recombinant carbonic anhydrase 1 expressed in Escherichia coli preincubated for 15 mins by stopped flow CO2 hydration method
Carbonic anhydrase 12 = Carbonic anhydrase 12 (Homo sapiens, UniProt O43570); assay: Inhibition of human recombinant carbonic anhydrase 12 expressed in Escherichia coli preincubated for 15 mins by stopped flow CO2 hydration method
Chain of Carbonic anhydrase 12 (O43570 whole entry): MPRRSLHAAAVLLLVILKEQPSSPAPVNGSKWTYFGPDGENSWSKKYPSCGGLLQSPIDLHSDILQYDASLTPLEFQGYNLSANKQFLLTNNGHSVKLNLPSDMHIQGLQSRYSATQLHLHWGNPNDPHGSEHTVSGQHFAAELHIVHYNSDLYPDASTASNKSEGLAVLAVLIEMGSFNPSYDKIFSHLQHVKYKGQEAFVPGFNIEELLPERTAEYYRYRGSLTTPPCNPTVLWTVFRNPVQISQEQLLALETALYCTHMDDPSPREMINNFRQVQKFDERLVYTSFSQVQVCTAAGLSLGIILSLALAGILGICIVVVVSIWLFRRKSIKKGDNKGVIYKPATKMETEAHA

Carbonic anhydrase 2 = Carbonic anhydrase 2 (Homo sapiens, UniProt P00918); assay: Inhibition of human recombinant carbonic anhydrase 2 expressed in Escherichia coli preincubated for 15 mins by stopped flow CO2 hydration method
Carbonic anhydrase 9 = Carbonic anhydrase 9 (Homo sapiens, UniProt Q16790)
Description: Inhibition of human recombinant carbonic anhydrase 9 expressed in Escherichia coli preincubated for 15 mins by stopped flow CO2 hydration method

[1] = Dissociation constant, acidic pKa of the compound by spectrophotometric analysis

Chain of Carbonic anhydrase 1 (P00915 whole entry): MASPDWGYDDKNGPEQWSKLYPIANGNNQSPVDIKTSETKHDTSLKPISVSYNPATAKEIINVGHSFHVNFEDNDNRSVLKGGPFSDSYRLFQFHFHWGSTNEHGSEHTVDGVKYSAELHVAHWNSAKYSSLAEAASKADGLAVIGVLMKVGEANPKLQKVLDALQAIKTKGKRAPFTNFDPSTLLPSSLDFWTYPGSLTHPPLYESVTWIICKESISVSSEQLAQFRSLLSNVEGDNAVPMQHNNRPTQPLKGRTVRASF

| Ki (Carbonic anhydrase 1) | Ki (Carbonic anhydrase 12) | Ki (Carbonic anhydrase 2) | Ki (Carbonic anhydrase 9) | pKa [1] | SMILES |
| --- | --- | --- | --- | --- | --- |
| > 50 µM | 50 µM | > 50 µM | > 50 µM |  | O=C(O)c1cc(-c2ccc(Cl)cc2)n[nH]1 |
| > 50 µM | 4.5 µM | > 50 µM | 42 µM |  | CCc1ccc(-c2cc(C(=O)O)[nH]n2)cc1 |
| > 50 µM | 41 µM | > 50 µM | > 50 µM |  | O=C(O)c1cc(-c2ccc(O)cc2)n[nH]1 |
| > 50 µM | > 50 µM | > 50 µM | 49.5 µM | 3.31 | COc1ccc(-c2cc(C(=O)O)n[nH]2)cc1 |
| > 50 µM | > 50 µM | > 50 µM | 45 µM |  | Cc1ccc(-c2cc(C(=O)O)[nH]n2)c(C)c1 |
| > 50 µM | > 50 µM | > 50 µM | 48 µM |  | Cc1ccc(-c2cc(C(=O)O)[nH]n2)cc1C |
| > 50 µM | 38.5 µM | > 50 µM | > 50 µM |  | O=C(O)c1cc(-c2ccc(F)cc2)n[nH]1 |
| > 50 µM | > 50 µM | > 50 µM | > 50 µM |  | CC(C)c1ccc(-c2cc(C(=O)O)[nH]n2)cc1 |
| > 50 µM | > 50 µM | > 50 µM | > 50 µM |  | Cc1ccc(-c2cc(C(=O)O)[nH]n2)cc1 |
| > 50 µM |  | > 50 µM | > 50 µM |  | O=C(O)c1cc(-c2ccc3ccccc3c2)[nH]n1 |
| > 50 µM |  | > 50 µM | 39 µM |  | CCCCc1ccc(-c2cc(C(=O)O)n[nH]2)cc1 |
| > 50 µM |  | > 50 µM | 5 µM |  | CC(C)(C)c1ccc(-c2cc(C(=O)O)n[nH]2)cc1 |
| > 50 µM | > 50 µM | > 50 µM | 23.5 µM |  | Cc1cc(C)c(-c2cc(C(=O)O)n[nH]2)cc1C |
| > 50 µM | > 50 µM | > 50 µM | 5 µM |  | Cc1cc(C)c(C)c(-c2cc(C(=O)O)n[nH]2)c1C |
| > 50 µM | > 50 µM | > 50 µM | > 50 µM |  | CCc1cc(CC)c(-c2cc(C(=O)O)n[nH]2)c(CC)c1 |
| > 50 µM | > 50 µM | > 50 µM | 16 µM |  | CC(C)c1ccc(-c2cc(C(=O)O)n[nH]2)c(C(C)C)c1 |
| > 50 µM |  | > 50 µM | 39 µM |  | CC(C)c1cc(C(C)C)c(-c2cc(C(=O)O)n[nH]2)c(C(C)C)c1 |
| > 50 µM |  | > 50 µM | > 50 µM |  | O=C(O)c1cc(-c2ccc3c(c2)CCCC3)[nH]n1 |
| > 50 µM |  | > 50 µM | > 50 µM |  | O=C(O)c1cc(-c2ccc(-c3ccccc3)cc2)[nH]n1 |
| > 50 µM |  | > 50 µM | > 50 µM |  | O=C(O)c1cc(-c2ccc(N3CCCC3)cc2)[nH]n1 |
| > 50 µM | > 50 µM | > 50 µM | 23.5 µM |  | O=C(O)c1cc(-c2cccc(Br)c2)[nH]n1 |
| > 50 µM |  | > 50 µM | > 50 µM |  | COc1ccccc1-c1cc(C(=O)O)n[nH]1 |
| > 50 µM | > 50 µM | > 50 µM | 22.5 µM |  | COc1cc(C)c(-c2cc(C(=O)O)n[nH]2)cc1C |
